Test results taken from ChEMBL document CHEMBL5500375, “Design, synthesis, and evaluation of N1,N3-dialkyldioxonaphthoimidazoliums as antibacterial agents against methicillin-resistant Staphylococcus aureus” (Eur J Med Chem, 2024).
Converted amounts (≈) assume the structure as drawn. The source made the active and inactive calls. The rule behind the calls is not given here.

Experiments:
Staphylococcus aureus [1] = experiment: Antibacterial agents against methicillin-resistant Staphylococcus aureus SA3 assessed as absence of growth measured after 18 hrs by micro-dilution method; assay type: functional
Bacillus subtilis = experiment: Antibacterial agents against Bacillus subtilis PS380 assessed as absence of growth measured after 18 hrs by micro-dilution method; assay type: functional
Staphylococcus aureus [2] = experiment: Antibacterial agents against methicillin-sensitive Staphylococcus aureus SA1 assessed as absence of growth measured after 18 hrs by micro-dilution method; assay type: functional
Escherichia coli = experiment: Antibacterial agents against gram negative Escherichia coli MG1655 assessed as reduction in colony forming unit at 0.05 to 0.2 ug/ml measured upto 10 hrs by LB agar medium method; assay type: functional, organism-based; conditions: dose 0.05-0.2 µg/ml
Pseudomonas aeruginosa = experiment: Antibacterial agents against gram negative Pseudomonas aeruginosa PA14 assessed as reduction in colony forming unit at 0.05 to 0.2 ug/ml measured upto 10 hrs by LB agar medium method; assay type: functional, organism-based; conditions: dose 0.05-0.2 µg/ml
Staphylococcus aureus [3] = experiment: In vivo antibacterial activity against methicillin-resistant Staphylococcus aureus SA3 infected in dorsal thorax of Drosophila melanogaster strain Oregon R assessed as median survival time of Drosophila at 0.04 to 0.2 mg/ml measured upto 72 hrs; assay type: functional; conditions: dose 0.04-0.2 mg/ml
Staphylococcus aureus [4] = experiment: Antibacterial agents against c5-resistant mutant of methicillin-resistant Staphylococcus aureus SA3 m3 assessed as absence of growth measured after 18 hrs by micro-dilution method; assay type: functional
Staphylococcus aureus [5] = experiment: Reduction in virulent activity of methicillin-resistant Staphylococcus aureus SA3 infected in dorsal thorax of Drosophila melanogaster strain Oregon R at 0.2 mg/ml measured upto 72 hrs; assay type: functional, organism-based
Staphylococcus aureus [6] = experiment: In vivo antibacterial activity against methicillin-resistant Staphylococcus aureus SA3 infected in dorsal thorax of Drosophila melanogaster strain Oregon R assessed as survival time of Drosophila at 0.2 mg/ml measured upto 72 hrs; assay type: functional
[7] = Metabolic stability in human liver microsomes assessed as half life at 2 uM preincubated for 5 mins followed by NADPH addition and measured for 35 mins by LC/MS analysis; assay type: ADME, Microsome; conditions: preincubation 5 min
Staphylococcus aureus [8] = experiment: Antibacterial agents against c5-resistant mutant of methicillin-resistant Staphylococcus aureus SA3 m4 assessed as absence of growth measured after 18 hrs by micro-dilution method; assay type: functional
Staphylococcus aureus [9] = experiment: Antibacterial agents against c5-resistant mutant of methicillin-resistant Staphylococcus aureus SA3 m1 assessed as absence of growth measured after 18 hrs by micro-dilution method; assay type: functional
Staphylococcus aureus [10] = experiment: Induction of ROS generation in methicillin-resistant Staphylococcus aureus USA300 using hydroxyphenyl fluorescein at 0.09 ug/ml under anaerobic condition; assay type: functional, organism-based; conditions: dose 0.09 µg/ml, TDE = time-dependent effect
Staphylococcus aureus [11] = experiment: Antibacterial agents against c5-resistant mutant of methicillin-resistant Staphylococcus aureus SA3 m2 assessed as absence of growth measured after 18 hrs by micro-dilution method; assay type: functional
Staphylococcus aureus [12] = experiment: Induction of ROS generation in methicillin-resistant Staphylococcus aureus SA3 using hydroxyphenyl fluorescein at 0.09 ug/ml under anaerobic condition; assay type: functional, organism-based; conditions: dose 0.09 µg/ml, TDE = time-dependent effect
Staphylococcus aureus [13] = experiment: Antibacterial agents against methicillin-sensitive Staphylococcus aureus Newman assessed as absence of growth measured after 18 hrs by micro-dilution method; assay type: functional
[14] = Metabolic stability in human liver microsomes assessed as intrinsic clearance at 2 uM preincubated for 5 mins followed by NADPH addition and measured for 35 mins by LC/MS analysis; assay type: ADME, Microsome; conditions: read-out: CLH
Staphylococcus aureus [15] = experiment: Antibacterial agents against methicillin-resistant Staphylococcus aureus USA300 assessed as absence of growth measured after 18 hrs by micro-dilution method; assay type: functional
[16] = In vivo toxicity in Drosophila melanogaster strain Oregon R assessed as survival rate at 0.1 to 1 mg/ml measured upto 72 hrs relative to control; assay type: organism-based; conditions: dose 0.1-1 mg/ml; for Activity: 72 h

Compound	MIC (Staphylococcus aureus [1])	MIC (Bacillus subtilis)	MIC (Staphylococcus aureus [2])	also measured
Cc1n(Cc2ccco2)c2c([n+]1Cc1ccccc1)C(=O)c1ccccc1C2=O.[Br-]	6.25 µg/mL			
Cc1n(CC2CC2)c2c([n+]1Cc1ccccc1)C(=O)c1ccccc1C2=O.[Br-]	1.56 µg/mL	1.56 µg/mL	0.78 µg/mL	
POLYMYXIN B				Activity (Escherichia coli): inactive; Activity (Pseudomonas aeruginosa): inactive
CCCC[n+]1c2c(n(C(C)C)c1C)C(=O)c1ccccc1C2=O.[Br-]	3.13 µg/mL			
CCCn1c2c([n+](Cc3ccccc3)c1C)C(=O)c1ccccc1C2=O.[Br-]	6.25 µg/mL			
CCCCn1c2c([n+](CC3CCCCC3)c1C)C(=O)c1ccccc1C2=O.[Br-]	3.13 µg/mL			
CCCCCCn1c2c([n+](Cc3ccccc3)c1C)C(=O)c1ccccc1C2=O.[Br-]	0.78 µg/mL	0.78 µg/mL	0.78 µg/mL	
CCCCCn1c2c([n+](Cc3ccccc3)c1C)C(=O)c1ccccc1C2=O.[Br-]	1.56 µg/mL	6.25 µg/mL	3.13 µg/mL	
CCCCn1c2c([n+](Cc3ccco3)c1C)C(=O)c1ccccc1C2=O.[Br-]	6.25 µg/mL			
CCCCCCCCCn1c2c([n+](CCCC)c1C)C(=O)c1ccccc1C2=O.[Br-]	3.13 µg/mL			
CCCCn1c2c([n+](Cc3ccccc3)c1C)C(=O)c1ccccc1C2=O.[Br-]	12.5 µg/mL			
CCCCCn1c2c([n+](Cc3ccco3)c1C)C(=O)c1ccccc1C2=O.[Br-]	3.13 µg/mL			
CCCCCn1c2c([n+](CCCCC)c1C)C(=O)c1ccccc1C2=O.[Br-]	3.13 µg/mL			
CCCCCCCn1c2c([n+](CCCC)c1C)C(=O)c1ccccc1C2=O.[Br-]	0.78 µg/mL	0.39 µg/mL	0.78 µg/mL	
CCCCCC[n+]1c2c(n(CCCC)c1C)C(=O)c1ccccc1C2=O.[Br-]	3.13 µg/mL			
CCCC[n+]1c2c(n(C(C)(C)C)c1C)C(=O)c1ccccc1C2=O.[Br-]	6.25 µg/mL			
CCCCCCn1c2c([n+](Cc3ccco3)c1C)C(=O)c1ccccc1C2=O.[Br-]	0.78 µg/mL	3.13 µg/mL	0.78 µg/mL	
CCCCCn1c2c([n+](CCCC)c1C)C(=O)c1ccccc1C2=O.[Br-]	3.13 µg/mL			
Cc1n(C2CC2)c2c([n+]1Cc1ccccc1)C(=O)c1ccccc1C2=O.[Br-]	6.25 µg/mL			
Cc1n(C2CCCCCC2)c2c([n+]1Cc1ccccc1)C(=O)c1ccccc1C2=O.[Br-]	6.25 µg/mL			
CCCCCCCCCCn1c2c([n+](CCCC)c1C)C(=O)c1ccccc1C2=O.[Br-]	3.13 µg/mL			
COCC[n+]1c2c(n(Cc3cnccn3)c1C)C(=O)c1ccccc1C2=O.[Br-] [SEPANTRONIUM BROMIDE]	50 µg/mL			
Cc1n(C(C)C)c2c([n+]1Cc1ccccc1)C(=O)c1ccccc1C2=O.[Br-]	3.13 µg/mL			
CCCCCC[n+]1c2c(n(CCOC)c1C)C(=O)c1ccccc1C2=O.[Br-]	6.25 µg/mL	6.25 µg/mL	6.25 µg/mL	Time (Staphylococcus aureus [3]): 38 h; MIC (Staphylococcus aureus [4]): > 50 µg/mL; Activity (Staphylococcus aureus [5]): inactive; Time (Staphylococcus aureus [6]): 54 h; half-life at 2 µM [7]: 33.7 min; MIC (Staphylococcus aureus [8]): > 50 µg/mL; MIC (Staphylococcus aureus [9]): > 50 µg/mL; Activity (Staphylococcus aureus [10]): Tde; MIC (Staphylococcus aureus [11]): > 50 µg/mL; Activity (Staphylococcus aureus [12]): Tde; MIC (Staphylococcus aureus [13]): 6.25 µg/mL; CLint scaled at 2 µM [14]: 37 mL/min/kg; MIC (Staphylococcus aureus [15]): 6.25 µg/mL

Compound	MIC (Staphylococcus aureus [1])	MIC (Bacillus subtilis)	MIC (Staphylococcus aureus [2])	also measured
CCCCCCCn1c2c([n+](CCCCCCC)c1C)C(=O)c1ccccc1C2=O.[Br-]	0.39 µg/mL	0.39 µg/mL	0.39 µg/mL	Activity [16]: Non-Toxic; half-life at 2 µM [7]: 17.4 min; MIC (Staphylococcus aureus [13]): 0.39 µg/mL; CLint scaled at 2 µM [14]: 77 mL/min/kg; MIC (Staphylococcus aureus [15]): 0.39 µg/mL
CCCCCCCCn1c2c([n+](Cc3ccco3)c1C)C(=O)c1ccccc1C2=O.[Br-]	0.39 µg/mL	0.39 µg/mL	0.39 µg/mL	Activity [16]: Toxic; half-life at 2 µM [7]: 16.1 min; MIC (Staphylococcus aureus [13]): 0.39 µg/mL; CLint scaled at 2 µM [14]: 95 mL/min/kg; MIC (Staphylococcus aureus [15]): 0.39 µg/mL
CCCCCCCn1c2c([n+](Cc3ccco3)c1C)C(=O)c1ccccc1C2=O.[Br-]	0.78 µg/mL	0.78 µg/mL	0.78 µg/mL	Activity [16]: Non-Toxic; half-life at 2 µM [7]: 55.1 min; MIC (Staphylococcus aureus [13]): 0.78 µg/mL; CLint scaled at 2 µM [14]: 24 mL/min/kg; MIC (Staphylococcus aureus [15]): 0.78 µg/mL
CCCCCCCCCCn1c2c([n+](Cc3ccccc3)c1C)C(=O)c1ccccc1C2=O.[Br-]	0.39 µg/mL	1.56 µg/mL	0.39 µg/mL	Activity [16]: Toxic; half-life at 2 µM [7]: 13.2 min; MIC (Staphylococcus aureus [13]): 0.39 µg/mL; CLint scaled at 2 µM [14]: 103 mL/min/kg; MIC (Staphylococcus aureus [15]): 0.39 µg/mL
CCCCCCn1c2c([n+](CCCCCC)c1C)C(=O)c1ccccc1C2=O.[Br-]	0.78 µg/mL	1.56 µg/mL	0.78 µg/mL	MIC (Staphylococcus aureus [13]): 0.78 µg/mL; MIC (Staphylococcus aureus [15]): 0.78 µg/mL
CCCCCCCCn1c2c([n+](CCCC)c1C)C(=O)c1ccccc1C2=O.[Br-]	0.39 µg/mL	0.39 µg/mL	0.39 µg/mL	Activity [16]: Non-Toxic; half-life at 2 µM [7]: 11.6 min; MIC (Staphylococcus aureus [13]): 0.39 µg/mL; CLint scaled at 2 µM [14]: 125 mL/min/kg; MIC (Staphylococcus aureus [15]): 0.39 µg/mL
CCn1c2c([n+](Cc3ccco3)c1C)C(=O)c1ccccc1C2=O.[Br-]	12.5 µg/mL			
CCCCCCCCCn1c2c([n+](Cc3ccccc3)c1C)C(=O)c1ccccc1C2=O.[Br-]	0.39 µg/mL	1.56 µg/mL	0.39 µg/mL	Activity [16]: Toxic; half-life at 2 µM [7]: 51.8 min; MIC (Staphylococcus aureus [13]): 0.39 µg/mL; CLint scaled at 2 µM [14]: 26 mL/min/kg; MIC (Staphylococcus aureus [15]): 0.39 µg/mL
CN[C@H](CC(C)C)C(=O)N[C@H]1C(=O)N[C@@H](CC(N)=O)C(=O)N[C@H]2C(=O)N[C@H]3C(=O)N[C@H](C(=O)N[C@H](C(=O)O)c4cc(O)cc(O)c4-c4cc3ccc4O)[C@H](O)c3ccc(c(Cl)c3)Oc3cc2cc(c3O[C@@H]2O[C@H](CO)[C@@H](O)[C@H](O)[C@H]2O[C@H]2C[C@](C)(N)[C@H](O)[C@H](C)O2)Oc2ccc(cc2Cl)[C@H]1O [VANCOMYCIN]	6.25 µg/mL (≈ 4.31 µM)	0.19 µg/mL (≈ 0.131 µM)	1.56 µg/mL (≈ 1.08 µM)	Time (Staphylococcus aureus [3]): 40 h; Activity (Staphylococcus aureus [5]): inactive; Time (Staphylococcus aureus [6]): 54 h; MIC (Staphylococcus aureus [13]): 1.56 µg/mL (≈ 1.08 µM); MIC (Staphylococcus aureus [15]): 6.25 µg/mL (≈ 4.31 µM)
Cc1n(C2CCC2)c2c([n+]1Cc1ccccc1)C(=O)c1ccccc1C2=O.[Br-]	3.13 µg/mL			
CCCCCCCCn1c2c([n+](CCCCCCCC)c1C)C(=O)c1ccccc1C2=O.[Br-]	3.13 µg/mL			
CCn1c2c([n+](Cc3ccccc3)c1C)C(=O)c1ccccc1C2=O.[Br-]	3.13 µg/mL			
Cc1n(CC(C)C)c2c([n+]1Cc1ccccc1)C(=O)c1ccccc1C2=O.[Br-]	3.13 µg/mL			
Cc1n(CC2CCCCC2)c2c([n+]1Cc1ccccc1)C(=O)c1ccccc1C2=O.[Br-]	1.56 µg/mL	0.78 µg/mL	1.56 µg/mL	
Cc1n(C2CCCC2)c2c([n+]1Cc1ccccc1)C(=O)c1ccccc1C2=O.[Br-]	12.5 µg/mL			
CCCn1c2c([n+](Cc3ccco3)c1C)C(=O)c1ccccc1C2=O.[Br-]	12.5 µg/mL			
CCCCCCCn1c2c([n+](Cc3ccccc3)c1C)C(=O)c1ccccc1C2=O.[Br-]	0.78 µg/mL	0.78 µg/mL	0.39 µg/mL	survival at 72 h ([16]; Oregon R, at 0.1 to 1 mg/mL): 75%; half-life at 2 µM [7]: 15.6 min; MIC (Staphylococcus aureus [13]): 0.39 µg/mL; CLint scaled at 2 µM [14]: 101 mL/min/kg; MIC (Staphylococcus aureus [15]): 0.78 µg/mL
CCCCn1c2c([n+](C3CCCCC3)c1C)C(=O)c1ccccc1C2=O.[Br-]	25 µg/mL			
CCCC[n+]1c2c(n(CC(C)C)c1C)C(=O)c1ccccc1C2=O.[Br-]	3.13 µg/mL			
CCCC[n+]1c2c(n(C3CCC3)c1C)C(=O)c1ccccc1C2=O.[Br-]	25 µg/mL			
Cc1n(C2CCCCC2)c2c([n+]1Cc1ccccc1)C(=O)c1ccccc1C2=O.[Br-]	1.56 µg/mL	1.56 µg/mL	0.78 µg/mL	
Cc1n(C(C)(C)C)c2c([n+]1Cc1ccccc1)C(=O)c1ccccc1C2=O.[Br-]	3.13 µg/mL			
CCCC[n+]1c2c(n(CC3CC3)c1C)C(=O)c1ccccc1C2=O.[Br-]	12.5 µg/mL			
